# Measurements taken from patent US8609391B2, “Mannose-6-phosphate isomerase, mutant thereof, and use thereof” (Konkuk University Industrial Cooperation Corp., priority 2009, dated 2013).
# T1: Thermus thermophilus mannose-6-phosphate isomerase (Sequence No. 1) variant R142N (gene SEQ ID NO: 5) (Thermus thermophilus, UniProt Q5SIM4, R142N)
# T1 construct: site-directed mutant
# T1 sequence (Q5SIM4 1-254 R142N): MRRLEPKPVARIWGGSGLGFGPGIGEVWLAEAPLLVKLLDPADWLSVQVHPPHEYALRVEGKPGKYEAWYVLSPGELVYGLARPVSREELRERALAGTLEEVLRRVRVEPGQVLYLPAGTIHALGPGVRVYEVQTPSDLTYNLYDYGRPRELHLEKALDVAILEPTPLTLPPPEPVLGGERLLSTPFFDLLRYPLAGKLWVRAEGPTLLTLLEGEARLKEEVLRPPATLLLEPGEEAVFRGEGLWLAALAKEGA
# T2: Thermus thermophilus mannose-6-phosphate isomerase, wild type, Sequence No. 1 (gene SEQ ID NO: 3) (Thermus thermophilus, UniProt Q5SIM4)
# T2 sequence (Q5SIM4 1-254): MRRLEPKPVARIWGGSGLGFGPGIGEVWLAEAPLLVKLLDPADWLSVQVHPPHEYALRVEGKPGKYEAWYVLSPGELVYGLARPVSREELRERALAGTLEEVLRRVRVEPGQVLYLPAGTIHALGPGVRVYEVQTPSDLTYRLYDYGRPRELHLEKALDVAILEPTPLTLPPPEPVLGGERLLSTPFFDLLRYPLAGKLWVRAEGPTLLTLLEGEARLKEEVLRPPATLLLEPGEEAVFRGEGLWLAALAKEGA
# B1: Thermus thermophilus mannose-6-phosphate isomerase (Sequence No. 1) variant R142N (gene SEQ ID NO: 5) (Thermus thermophilus HB8; R142N) (protein)
# chain: MRRLEPKPVARIWGGSGLGFGPGIGEVWLAEAPLLVKLLDPADWLSVQVHPPHEYALRVEGKPGKYEAWYVLSPGELVYGLARPVSREELRERALAGTLEEVLRRVRVEPGQVLYLPAGTIHALGPGVRVYEVQTPSDLTYNLYDYGRPRELHLEKALDVAILEPTPLTLPPPEPVLGGERLLSTPFFDLLRYPLAGKLWVRAEGPTLLTLLEGEARLKEEVLRPPATLLLEPGEEAVFRGEGLWLAALAKEGA
# notes: site-directed mutant
# B2: Thermus thermophilus mannose-6-phosphate isomerase, wild type, Sequence No. 1 (gene SEQ ID NO: 3) (Thermus thermophilus HB8) (protein)
# chain: MRRLEPKPVARIWGGSGLGFGPGIGEVWLAEAPLLVKLLDPADWLSVQVHPPHEYALRVEGKPGKYEAWYVLSPGELVYGLARPVSREELRERALAGTLEEVLRRVRVEPGQVLYLPAGTIHALGPGVRVYEVQTPSDLTYRLYDYGRPRELHLEKALDVAILEPTPLTLPPPEPVLGGERLLSTPFFDLLRYPLAGKLWVRAEGPTLLTLLEGEARLKEEVLRPPATLLLEPGEEAVFRGEGLWLAALAKEGA
# Experiments:
# [1] = target: T1, Thermus thermophilus mannose-6-phosphate isomerase (Sequence No. 1) variant R142N (gene SEQ ID NO: 5); test: Kinetic parameters to L-ribulose, R142N mutant; format: biochemical; settings: 75° C., pH 7.0, 0.5 mM Cu^2+
# Protocol: (§1) The experiment for measuring and comparing specific activities of the mannose-6-isomerase and mutant enzyme to L-ribulose was performed.
# (§2) The enzyme reaction was performed at 75° C. for 5 minutes using 50 mM PIPES buffer solution (pH 7.0) including 10 mM ribulose and the metal ion of 0.5 mM Cu^2+ and then again stopped by adding a final concentration of 200 mM hydrogen chloride. In the present invention, the enzyme activity was measured by using […] as a substrate, and one unit of the enzyme activity was defined as the amount of enzyme required to produce 1 nmole of L-Ribose per 1 minute at 75° C. and pH 7.0 for a smooth comparative analysis. In addition, when measuring the enzyme activity, the analysis of the concentrations of ribose and ribulose, and other sugars was performed by using Bio liquid chromatography (Bio-LC) system (DIONEX ICS-3000, Sunnylvale, Calif., USA) installed with CarboPacPA and an electrochemical detector. At this point, 200 mM sodium hydroxide (NaOH) was passed through the CarboPacPA column at the rate of 1 ml/min at 30° C.
# [2] = target: T3, Thermus thermophilus mannose-6-phosphate isomerase (Sequence No. 1) variant R142E (Thermus thermophilus, UniProt Q5SIM4, R142E); test: Kinetic parameters to L-ribulose, R142E mutant; format: biochemical; settings: 75° C., pH 7.0, 0.5 mM Cu^2+
# T3 construct: site-directed mutant
# Protocol: as §1, §2
# [3] = target: T2, Thermus thermophilus mannose-6-phosphate isomerase, wild type, Sequence No. 1 (gene SEQ ID NO: 3); test: Kinetic parameters to L-ribulose, wild enzyme; format: biochemical; settings: 75° C., pH 7.0, 0.5 mM Cu^2+
# Protocol: as §1, §2
# [4] = target: T4, Thermus thermophilus mannose-6-phosphate isomerase (Sequence No. 1) variant R142K (Thermus thermophilus, UniProt Q5SIM4, R142K); test: Kinetic parameters to L-ribulose, R142K mutant; format: biochemical; settings: 75° C., pH 7.0, 0.5 mM Cu^2+
# T4 construct: site-directed mutant
# Protocol: as §1, §2
# [5] = target: T5, Thermus thermophilus mannose-6-phosphate isomerase (Sequence No. 1) variant R142Y (Thermus thermophilus, UniProt Q5SIM4, R142Y); test: Kinetic parameters to L-ribulose, R142Y mutant; format: biochemical; settings: 75° C., pH 7.0, 0.5 mM Cu^2+
# T5 construct: site-directed mutant
# Protocol: as §1, §2
# [6] = target: T6, Thermus thermophilus mannose-6-phosphate isomerase (Sequence No. 1) variant R142A (Thermus thermophilus, UniProt Q5SIM4, R142A); test: Kinetic parameters to L-ribulose, R142A mutant; format: biochemical; settings: 75° C., pH 7.0, 0.5 mM Cu^2+
# T6 construct: site-directed mutant
# Protocol: as §1, §2
# [7] = substrate: O=C(CO)[C@@H](O)[C@@H](O)CO; test: Kinetic parameters to L-ribulose, R142N mutant; format: biochemical, Thermus thermophilus; settings: other: 75° C., pH 7.0, 0.5 mM Cu^2+
# Protocol: as §1, §2
# [8] = substrate: O=C(CO)[C@@H](O)[C@@H](O)CO; test: Kinetic parameters to L-ribulose, wild enzyme; format: biochemical, Thermus thermophilus; settings: other: 75° C., pH 7.0, 0.5 mM Cu^2+
# Protocol: as §1, §2
# T3 sequence (Q5SIM4 entry or part of it R142E): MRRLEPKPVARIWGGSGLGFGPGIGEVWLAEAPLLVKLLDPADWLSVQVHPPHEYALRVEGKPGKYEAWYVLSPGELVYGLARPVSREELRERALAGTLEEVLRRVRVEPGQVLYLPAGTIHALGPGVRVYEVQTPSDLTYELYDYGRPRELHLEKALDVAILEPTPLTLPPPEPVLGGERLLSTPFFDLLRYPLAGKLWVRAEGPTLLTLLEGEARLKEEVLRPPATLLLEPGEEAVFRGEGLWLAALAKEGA
# T4 sequence (Q5SIM4 entry or part of it R142K): as the sequence (Q5SIM4 entry or part of it R142E) above, with E142K counted along it
# T6 sequence (Q5SIM4 entry or part of it R142A): as the sequence (Q5SIM4 entry or part of it R142E) above, with E142A counted along it
# T5 sequence (Q5SIM4 entry or part of it R142Y): as the sequence (Q5SIM4 entry or part of it R142E) above, with E142Y counted along it
molecule,measurement,setting,value
O=C(CO)[C@@H](O)[C@@H](O)CO [L-ribulose],kcat,[1],81063 ± 1329 s⁻¹
same,kcat/Km,[1],579000 ± 20000 M⁻¹ s⁻¹
same,increase of catalytic efficiency as compared to the wild enzyme,[1]; ratio R142N / wild,1.5 fold
same,kcat,[2],32666 ± 536 s⁻¹
same,kcat/Km,[2],216000 ± 8000 M⁻¹ s⁻¹
same,kcat,[3],50644 ± 709 s⁻¹
same,kcat/Km,[3],374000 ± 11000 M⁻¹ s⁻¹
same,kcat,[4],68877 ± 964 s⁻¹
same,kcat/Km,[4],302000 ± 9000 M⁻¹ s⁻¹
same,kcat,[5],56178 ± 865 s⁻¹
same,kcat/Km,[5],182000 ± 5000 M⁻¹ s⁻¹
same,kcat,[6],64873 ± 908 s⁻¹
same,kcat/Km,[6],353000 ± 11000 M⁻¹ s⁻¹
B1,kcat/Km,[7],579000 M⁻¹ s⁻¹
B2,kcat/Km,[8],374000 M⁻¹ s⁻¹
